Test results as given in patent US20120041062A1, “COMPOUND OF SALVIANOLIC ACID L, PREPARATION METHOD AND USE THEREOF” (Tianjin Tasly Pharmaceutical Co., Ltd., priority 2009, published 2012).

How the values were obtained:
[1] = DPPH free-radical scavenging reaction; type: biochemical; conditions: for DPPH free-radical scavenging rate: 20 min, 25° C., 517 nm
Experimental: In this study, 1,1-diphenyl-2-picryl-hydrazyl (DPPH) free-radical scavenging reaction model has been used to observe the free-radical scavenging activity of the salvianolic acid L. The total reaction volume was 2 ml. 1 ml of the sample solutions at different concentrations in 80% methanol (v/v) were added into 100 μM of DPPH methanol solution, mixed uniformly to allow the solution to react for 20 min at 25° C. in the dark. Absorbance of the reaction solution was measured at 517 nm. In this study, vitamin C was regarded as a positive control. Free-radical scavenging rate was calculated in accordance with the following equation: Free-radical scavenging rate (%)=[1−Asample/Acontrol)/Acontrol]×100% Wherein, the Asample means the absorbance of the tested samples, and Acontrol means the absorbance of blank control.

[2] = Determination of reducing capacity (potassium ferricyanide / ferric chloride, absorbance at 700 nm); type: biochemical; conditions: FIG. 10; in words, compared with vitamin C
Experimental: 0.5 ml of 200 mM phosphate buffer (pH6.8) containing different concentrations of the salvianolic acid L and 1.0% potassium ferricyanide solution were sucked respectively and cooled on an ice bath after being heated on a water bath (50° C.) for 20 min. 0.5 ml of trichloroacetic acid solution (10%) was added and centrifuged at […] for 10 min. 1.0 ml of the resulting supernatant was taken, into which 1.0 ml of distilled water and 0.2 ml of ferric chloride solution (0.1%) were added, stood still for 10 min and the absorbance was measured at 700 nm. Meanwhile, the blank experiment was carried out. Vitamin C is a strongly reducing substance, acting as positive control in this study. Reducing capacity of the sample is represented by subtracting the absorbance of the blank control from the absorbance of the tested sample. Thus, it means the higher absorbance, the stronger reducing capacity.

H2O2-damaged PC12 cell [3] = experiment: Cell survival rate of H2O2-damaged PC12 cell (MTT method); type: cell-based; conditions: pre-treated 6 hours, 0.5 mM H2O2 1 hour
Experimental: (§1) a. MTT was added into 96-well microplate with 20 μl in each well, and reacted for 4 hours in incubator.
(§2) b. The supernatant was discarded, followed by addition of 150 μl DMSO in each well and shaken on flat shaking-table for 10 min.
(§3) c. Absorbance of each well was measured by ELISA reader at wavelength of 570 nm to calculate cell survival rate.
(§4) Cell survival rate %=(OD value of drug administration group/OD value of negative control group)×100%
(§5) a. PC12 cells at, exponential growth phase in good condition were washed with PBS twice, followed by addition of 0.25% trypsin digestive solution to perform digestion at 37° C. for about 1 min. This reaction was ended by addition of blood serum-contained culture medium, centrifuged and resuspended, then counted the cells to prepare a suspension with a cell density of 2×10^4−4×10^4 cells/ml.
(§6) b. The resulting cell suspension was inoculated into 96-well microplate with 180 μl in each well (n=3) and incubated in constant temperature CO2 incubator at 37° C. for 24 hours.
c. Grouping and treatments: there were 4 groups: blank control group (PBS), solvent control group (DMSO), model group (H2O2) and positive control group (Edaravone).
Positive control group: Edaravone (2 μg/ml) is added as a positive drug and then pre-treated for 6 hours, into which 0.5 mM hydrogen peroxide was added to damage for 1 hour and replaced with freshly-prepared DMEM+10%FBS culture medium, 200 μl per well.
(§7) d. The cell activity was determined by MTT method.
as §5, with “at” for “at,”
(§8) c. Grouping and treatments: there were 5 groups: blank control group (PBS), solvent control group (DMSO or ethyl acetate), model group (H2O2), positive control group (Edaravone) and drug treatment group.
(§9) Model group: 0.5 mM hydrogen peroxide (H2O2) was used to treat for 1 hour.
(§10) Positive control group: Edaravone (2 μg/ml ), used as a positive drug, was added to cell and pre-treated for 6 hours, into which 0.5 mM hydrogen peroxide was added to damage for 1 hour and replaced with freshly-prepared DMEM+10%FBS culture medium.
(§11) Drug treatment group: after the cell was inoculated into culture microplate, different tested drugs at different concentration were added firstly and pre-treated for 6 hours with 20 μl per well, into which 0.5 mM H2O2 was added to damage for 1 hour, and then replaced with freshly-prepared DMEM+10%FBS culture medium.
e. The activity of cell in cell microplate was determined by MTT method.

H2O2-damaged PC12 cell [4] = experiment: LDH activity of H2O2-damaged PC12 cell; type: cell-based; conditions: pre-treated 6 hours, 0.5 mM H2O2 1 hour, supernatant
Experimental: (§12) The experiment of determination was carried out according to the Specification of LDH test kit provided by Nanjing Jiangcheng Bioengineering Institute.
(§13) LDH activity (U/L)=(ODU−ODC)/(ODS−ODB)×CS×N×1 000
(§14) Wherein, ODU represented the absorbance of the tested sample, ODC represented the absorbance of control sample, ODB represented the absorbance of blank, ODS represented the absorbance of standard solution, CS represented the standard concentration of 2 mmol/L, N represented the dilution multiple of sample before determination.
as §5, with “at” for “at,”
as §6, §8, §9, §10, §11
d. The supernatant was collected, 20 μl per well, for determination of LDH activity.

[5] = test system: PC12 cell of oxygen-glucose deprivation; experiment: Cell survival rate of PC12 cell of oxygen-glucose deprivation (MTT method); type: cell-based; conditions: pre-treated 6 hours
Experimental: as §1, §2, §3, §4
as §5, with “at” for “at,”
as §6
c. Grouping and treatments: there were 3 groups: blank control group (normoxia+0.1% DMS0), model group (OGD+0.1% DMSO, oxygen-glucose deprivation) and positive control group (Edaravone).
Model group: the cell in culture microplate was cultured with glucose-free DMEM medium, which was placed in a hypoxic chamber, started to record time for 0.5 hour when O2% was less than 2.6, and then transferred to a routine incubator. The determination was carried out after a period of time of incubation.
Positive control group: Edaravone (2 μg/ml) was used as a positive drug. Drug was added and pre-treated for 6 hours, and then replaced with glucose-free medium, 180 μl per well. The drug was added again, placed in a hypoxic chamber, started to record time for 0.5 hour when O2% was less than 2.6, and then transferred to a routine incubator. The determination was carried out after a period of time of incubation.
as §7
(§15) c. Grouping and treatments: there were 4 groups: blank control group (normoxia+0.1% DMSO), model group (OGD+DMSO, oxygen-glucose deprivation), positive control group (Edaravone) and the drug treatment group.
(§16) Model group: the culture medium for the cells in microplate was changed to glucose-free DMEM, placed in a hypoxic chamber, and started to record time for 0.5 hour when O2% was less than 2.6, and then transferred to a routine incubator to culture overnight.
(§17) Positive control group: Edaravone (2 μg/ml ) was used as a positive drug. Drug was added and pre-treated for 6 hours, and then the culture medium was replaced with glucose-free DMEM medium, 180 μl per well. The drug was added again, placed in a hypoxic chamber, started to record time for 0.5 hour when 02% was less than 2.6, and then transferred to a routine incubator to culture overnight.
(§18) Drug treatment group: the drug at different concentrations was added and pre-treated for 6 hours, the culture medium was changed to glucose-free DMEM medium, 180 μl per well. The drug was added again, placed in a hypoxic chamber, started to record time for 0.5 hour when O2% was less than 2.6, and then transferred to a routine incubator to culture overnight.
e. The activity of cell was determined by MTT method.

[6] = test system: PC12 cell of oxygen-glucose deprivation (OGD); experiment: LDH activity of PC12 cell of oxygen-glucose deprivation (OGD); type: cell-based; conditions: pre-treated 6 hours, OGD 0.5 hour, cultured overnight, supernatant
Experimental: as §12, §13, §14
as §5, with “at” for “at,”
as §6, §15, §16, §17, §18
d. Resulting supernatant was collected the next day with 20 μl per well, which was used for determination of LDH activity.

[7] = final concentration 0.02 μg/ml, OGD 0.5 hour, cultured overnight
[8] = final concentration 0.2 μg/ml, OGD 0.5 hour, cultured overnight
[9] = final concentration 2 μg/ml, OGD 0.5 hour, cultured overnight

SMILES | DPPH free-radical scavenging rate ([1]; sample 0.314 μg/ml) | DPPH free-radical scavenging rate ([1]; sample 0.625 μg/ml) | DPPH free-radical scavenging rate ([1]; sample 1.25 μg/ml) | DPPH free-radical scavenging rate ([1]; sample 2.5 μg/ml) | DPPH free-radical scavenging rate ([1]; sample 5 μg/ml) | Survival rate (%) (H2O2-damaged PC12 cell [3]; final concentration 0.02 μg/ml) | Survival rate (%) (H2O2-damaged PC12 cell [3]; final concentration 0.2 μg/ml) | Survival rate (%) (H2O2-damaged PC12 cell [3]; final concentration 2 μg/ml) | LDH activity (U/L) (H2O2-damaged PC12 cell [4]; final concentration 0.02 μg/ml) | LDH activity (U/L) (H2O2-damaged PC12 cell [4]; final concentration 0.2 μg/ml) | LDH activity (U/L) (H2O2-damaged PC12 cell [4]; final concentration 2 μg/ml) | Survival rate (%) [5, 7] | Survival rate (%) [5, 8] | Survival rate (%) [5, 9] | LDH activity (U/L) ([6]; final concentration 0.02 μg/ml) | LDH activity (U/L) ([6]; final concentration 0.2 μg/ml) | LDH activity (U/L) ([6]; final concentration 2 μg/ml) | other results
O=C(/C=C/c1ccc(O)c(O)c1/C(=C/c1ccc(O)c(O)c1)C(=O)O)OC(Cc1ccc(O)c(O)c1)C(=O)O (centres unmarked) [salvianolic acid L] | 5.41 ± 0.74% | 12.95 ± 2.42% | 25.21 ± 1.82% | 44.19 ± 3.70% | 83.17 ± 4.12% | 47.2 ± 0.8 % | 44.89 ± 0.48% | 48.34 ± 0.25% | 550.336 ± 25.83 U/L | 474.27 ± 71.96 U/L | 487.70 ± 72.51 U/L | 47.74 ± 1.72 % | 36.68 ± 2.72 % | 35.96 ± 1.44% | 53.69 ± 29.23 U/L | 31.32 ± 11.55 U/L | 40.27 ± 5.17 U/L | DPPH free-radical scavenging rate (in words) ([1]; compared with vitamin C, Table 3 and FIG. 9): much higher free-radical scavenging rate than that of the vitamin C; reducing capacity (absorbance at 700 nm minus blank) [2]: much stronger than that of vitamin C
CC1=NN(c2ccccc2)C(=O)C1 [Edaravone] | – | – | – | – | – | 47.6 ± 2 % | 44.2 ± 6.11% | 58.18 ± 2.64 % | 532.44 ± 11.55 U/L | 568.23 ± 11.55 U/L | 523.49 ± 5.17 U/L | 44.75 ± 1.02 % | 36.37 ± 2.52 % | 39.99 ± 0.55 % | 40.27 ± 5.17 U/L | 22.37 ± 5.17 U/L | 31.32 ± 5.17 U/L | Survival rate (%) (H2O2-damaged PC12 cell [3]; establishment of hydrogen peroxide-damaged model, 2 μg/ml): 53.54 ± 3.66 %; Survival rate (%) ([5]; establishment of oxygen-glucose deprivation model, 2 μg/ml): 48.50 ± 1.81 %
O=C1O[C@H]([C@@H](O)CO)C(O)=C1O [Vitamin C] | 3.42 ± 0.42% | 7.06 ± 1.88% | 13.82 ± 1.83% | 29.39 ± 5.92% | 55.34 ± 7.21% | – | – | – | – | – | – | – | – | – | – | – | – | –
